Assay: logP(HCOOH) by HPLC
Assay type: physicochemical
Settings: HPLC on reversed phase columns, pH 2.7, 0.1% formic acid in water / acetonitrile gradient
`CC1=C(CC(C)OC(=O)Nc2nc(CON=C(c3ccccc3)n3nnnc3C)cs2)C1` (stereo not shown) [compound 208] gave a log p of 4.11.
`CC1=C(CC(C)OC(=O)Nc2nc(CON=C(c3ccccc3)n3nnnc3C)cs2)C1(C)C` (stereo not shown) [compound 207] showed a log p of 4.86.
Molecule `CCC(OC1CCCCCC1)C(=O)Nc1cccc(CON=C(c2ccccc2)c2nnnn2C)n1` (stereo not shown) [compound 195] has a log p of 5.27.
In the case of `Cn1nnnc1C(=NOCc1csc(NC(=O)CC=COc2ccccc2)n1)c1ccccc1` [compound 220], the log p is reported as 3.57.
`CC=NOCCOC(=O)Nc1cccc(CON=C(c2ccccc2)c2nnnn2C)n1` [compound 214] showed a log p of 2.96.
In the case of `Cn1nnnc1C(=NOCc1csc(NC(=O)CON=C2CCCCC2)n1)c1ccccc1` [compound 200], the log p is reported as 3.46.
Work on `Cn1nnnc1C(=NOCc1csc(NC(=O)OCCCC#C[Si](C)(C)C)n1)c1ccccc1` [compound 228] yielded a log p of 4.71.
`CC1=C(CC(C)OC(=O)Nc2nc(CON=C(c3ccccc3)c3nnnn3C)cs2)C1` (stereo not shown) [compound 210] showed a log p of 4.06.
`CC1CCC(OC(C)C(=O)Nc2cccc(CON=C(c3ccccc3)c3nnnn3C)n2)CC1` (stereo not shown) [compound 198] showed a log p of 4.81.
Work on `CCC(OC1CCCCC1)C(=O)Nc1cccc(CON=C(c2ccccc2)c2nnnn2C)n1` (stereo not shown) [compound 193] yielded a log p of 4.88.
In the case of `Cn1nnnc1C(=NOCc1csc(NC(=O)CC[Si](C)(C)C)n1)c1ccccc1` [compound 227], the log p is reported as 4.01.
For `CC1=C(CC(C)OC(=O)Nc2nc(CON=C(c3ccccc3)c3nnnn3C)cs2)C1(C)C` (stereo not shown) [compound 209], the log p was 4.68.
Molecule `CC1=C(CC(C)OCC(=O)Nc2cccc(CON=C(c3ccccc3)n3nnnc3C)n2)C1(C)C` (stereo not shown) [compound 222] has a log p of 5.42.

Same assay, conditions: HPLC on reversed phase columns, pH 2.7, 0.1% formic acid in water / acetonitrile, linear gradient 10% to 95% acetonitrile; EEC directive 79/831 Annex V.A8
`Cc1nnnn1C(=NOCc1csc(NC(=O)OC(C)C2CCCC2)n1)c1ccccc1` (stereo not shown) [compound 148] gave a log p of 4.3.
`Cn1nnnc1/C(=N\OCc1cccc(NC(=O)OC2CC3CCC2(C)C3(C)C)n1)c1ccccc1` (stereo not shown) [Example 55] showed a log p of 5.32.
In the case of `CCC(OC1CCCCC1)C(=O)Nc1nc(CON=C(c2ccccc2)n2nnnc2C)cs1` (stereo not shown) [compound 166], the log p is reported as 4.56.
With `C=CCCCOCC(=O)Nc1nc(CON=C(c2ccccc2)n2nnnc2C)cs1` [compound 111] the log p was 3.55.
With `CCC(OC1CCC1)C(=O)Nc1cccc(CON=C(c2ccccc2)n2nnnc2C)n1` (stereo not shown) [compound 187] the log p was 4.2.
Work on `CCON=C(C(=O)Nc1nc(CON=C(c2ccccc2)n2nnnc2C)cs1)c1ccc(Cl)cc1` [compound 123] yielded a log p of 4.61.
With `C#CCOC(CC)C(=O)Nc1nc(CON=C(c2ccccc2)c2nnnn2C)cs1` (stereo not shown) [compound 116] the log p was 3.08.
Molecule `Cn1nnnc1C(=NOCc1cccc(NC(=O)OCCC2CCCC2)n1)c1ccccc1` [compound 160] has a log p of 4.61.
In the case of `Cn1nnnc1C(=NOCc1cccc(NC(=O)OCCCC2CC2)n1)c1ccccc1` [Example 72], the log p is reported as 4.15.
In the case of `Cc1nnnn1C(=NOCc1csc(NC(=O)OCCCC2CCCCC2)n1)c1ccccc1` [Example 67], the log p is reported as 5.11.
`Cc1nnnn1C(=NOCc1cccc(NC(=O)OC(C)C2CCCCC2)n1)c1ccccc1` (stereo not shown) [compound 157] gave a log p of 5.08.
With `CCC(OC1CCCCCC1)C(=O)Nc1nc(CON=C(c2ccccc2)c2nnnn2C)cs1` (stereo not shown) [compound 176] the log p was 4.87.
`Cc1nnnn1C(=NOCc1csc(NC(=O)COC2CC(C)CCC2C(C)C)n1)c1ccccc1` (stereo not shown) [Example 106] gave a log p of 5.48.
With `Cc1nnnn1C(=NOCc1csc(NC(=O)OCC2CCCC2)n1)c1ccccc1` [Example 66] the log p was 3.99.
`C#CCOC(C(=O)Nc1cccc(CON=C(c2ccccc2)n2nnnc2C)n1)C(C)C` (stereo not shown) [compound 120] showed a log p of 3.7.
In the case of `Cn1nnnc1/C(=N\OCc1cccc(NC(=O)OCCC2CCCCC2)n1)c1ccccc1` [Example 59], the log p is reported as 5.11.
`CON=C(C(=O)Nc1nc(CON=C(c2ccccc2)c2nnnn2C)cs1)c1ccc(C)cc1` [compound 129] gave a log p of 4.05.
`CC(OC1CCCCC1)C(=O)Nc1ccc(Br)c(CON=C(c2ccccc2)c2nnnn2C)n1` (stereo not shown) [compound 181] showed a log p of 5.11.
Work on `C=C(C)C(C)=CCC(C)OCC(=O)Nc1cccc(CON=C(c2ccccc2)c2nnnn2C)n1` (stereo not shown) [compound 113] yielded a log p of 4.73.
Molecule `CCC(OC1CCC1)C(=O)Nc1nc(CON=C(c2ccccc2)c2nnnn2C)cs1` (stereo not shown) [compound 174] has a log p of 3.76.
For `Cc1nnnn1C(=NOCc1cccc(NC(=O)C(C)OC2CCC2)n1)c1ccccc1` (stereo not shown) [compound 185], the log p was 3.74.
In the case of `C=C=CCCC(=O)Nc1nc(CON=C(c2ccccc2)n2nnnc2C)cs1` [compound 139], the log p is reported as 3.09.
`Cc1nnnn1C(=NOCc1cccc(NC(=O)OCCC2CC2)n1)c1ccccc1` [compound 155] showed a log p of 3.81.
In the case of `C=C=CCCC(=O)Nc1cccc(CON=C(c2ccccc2)n2nnnc2C)n1` [compound 141], the log p is reported as 3.23.
`CC(OC1CCC1)C(=O)Nc1cccc(CON=C(c2ccccc2)c2nnnn2C)n1` (stereo not shown) [compound 192] showed a log p of 3.7.
`C=CCCCOCC(=O)Nc1cccc(CON=C(c2ccccc2)n2nnnc2C)n1` [compound 112] gave a log p of 3.83.
In the case of `CCC(OC1CCCC1)C(=O)Nc1nc(CON=C(c2ccccc2)c2nnnn2C)cs1` (stereo not shown) [compound 175], the log p is reported as 4.16.
With `C#CCOC(CC)C(=O)Nc1cccc(CON=C(c2ccccc2)n2nnnc2C)n1` (stereo not shown) [compound 119] the log p was 3.33.
With `CC(OC(=O)Nc1nc(CON=C(c2ccccc2)c2nnnn2C)cs1)C1CCCC1` (stereo not shown) [compound 152] the log p was 4.25.
Work on `CON=C(C(=O)Nc1nc(CON=C(c2ccccc2)c2nnnn2C)cs1)c1ccc(C)cc1` [compound 130] yielded a log p of 3.79.
Work on `Cn1nnnc1C(=NOCc1csc(NC(=O)C(OC2CCCCC2)c2ccccc2)n1)c1ccccc1` (stereo not shown) [compound 179] yielded a log p of 4.82.
With `CC(=NOCC(=O)Nc1cccc(CON=C(c2ccccc2)c2nnnn2C)n1)C(C)(C)C` [Example 31] the log p was 4.23.
Work on `CON=C(C(=O)Nc1nc(CON=C(c2ccccc2)n2nnnc2C)cs1)c1ccc(C)cc1` [compound 124] yielded a log p of 4.13.
In the case of `CON=C(C(=O)Nc1cccc(CON=C(c2ccccc2)n2nnnc2C)n1)c1ccc(Cl)cc1` [compound 132], the log p is reported as 4.69.
`Cc1nnnn1C(=NOCc1csc(NC(=O)OC(C)C2CCCCC2)n1)c1ccccc1` (stereo not shown) [compound 147] showed a log p of 4.66.
Work on `CC(OC(=O)Nc1cccc(CON=C(c2ccccc2)c2nnnn2C)n1)C1CCCCC1` (stereo not shown) [compound 161] yielded a log p of 4.98.
In the case of `CCON=C(C(=O)Nc1cccc(CON=C(c2ccccc2)n2nnnc2C)n1)c1ccc(Cl)cc1` [compound 133], the log p is reported as 4.93.
`C=C=CCCCOC(=O)Nc1nc(CON=C(c2ccccc2)c2nnnn2C)cs1` [compound 140] gave a log p of 3.69.
`Cc1nnnn1C(=NOCc1cccc(NC(=O)C(C)OC2CCCCCC2)n1)c1ccccc1` (stereo not shown) [compound 184] showed a log p of 4.86.
`C#CCOC(C(=O)Nc1cccc(CON=C(c2ccccc2)c2nnnn2C)n1)C(C)C` (stereo not shown) [compound 122] showed a log p of 3.63.
Molecule `C#CCOC(CC)C(=O)Nc1cccc(CON=C(c2ccccc2)c2nnnn2C)n1` (stereo not shown) [compound 121] has a log p of 3.27.
For `Cn1nnnc1C(=NOCc1cccc(NC(=O)OCCC2CC2)n1)c1ccccc1` [compound 159], the log p was 3.72.
For `CCC(OC1CCCCCC1)C(=O)Nc1cccc(CON=C(c2ccccc2)n2nnnc2C)n1` (stereo not shown) [compound 189], the log p was 5.41.
Molecule `Cc1nnnn1C(=NOCc1csc(NC(=O)OCCC2CC2)n1)c1ccccc1` [compound 145] has a log p of 3.5.
With `C#CCOC(C(=O)Nc1nc(CON=C(c2ccccc2)c2nnnn2C)cs1)C(C)C` (stereo not shown) [compound 117] the log p was 3.44.
Work on `C#CCOC(CC)C(=O)Nc1nc(CON=C(c2ccccc2)n2nnnc2C)cs1` (stereo not shown) [compound 115] yielded a log p of 3.11.
Work on `Cc1nnnn1C(=NOCc1cccc(NC(=O)C(C)OC2CCCCC2)n1)c1ccccc1` (stereo not shown) [compound 182] yielded a log p of 4.46.
`Cn1nnnc1C(=NOCc1csc(NC(=O)OCCCC2CC2)n1)c1ccccc1` [Example 76] gave a log p of 3.85.
Work on `CCC(OC1CCCC1)C(=O)Nc1nc(CON=C(c2ccccc2)n2nnnc2C)cs1` (stereo not shown) [compound 168] yielded a log p of 4.24.
With `Cc1nnnn1C(=NOCc1csc(NC(=O)C(C)OC2CCC2)n1)c1ccccc1` (stereo not shown) [compound 165] the log p was 3.46.
In the case of `CCON=C(C(=O)Nc1nc(CON=C(c2ccccc2)n2nnnc2C)cs1)c1ccc(C)cc1` [compound 126], the log p is reported as 4.13.
Molecule `CON=C(C(=O)Nc1nc(CON=C(c2ccccc2)n2nnnc2C)cs1)c1ccc(C)cc1` [compound 125] has a log p of 3.85.
Work on `CCC(OC1CCCCCC1)C(=O)Nc1nc(CON=C(c2ccccc2)n2nnnc2C)cs1` (stereo not shown) [compound 169] yielded a log p of 4.93.
`Cn1nnnc1C(=NOCc1csc(NC(=O)OCCC2CCCC2)n1)c1ccccc1` [compound 150] gave a log p of 4.26.
`CC(OC(=O)Nc1cccc(CON=C(c2ccccc2)c2nnnn2C)n1)C1CCCC1` (stereo not shown) [compound 162] gave a log p of 4.61.
`CCC(OC1CCCC1)C(=O)Nc1cccc(CON=C(c2ccccc2)n2nnnc2C)n1` (stereo not shown) [compound 188] showed a log p of 4.65.
`CON=C(C(=O)Nc1cccc(CON=C(c2ccccc2)n2nnnc2C)n1)c1ccc(F)cc1` [compound 136] gave a log p of 4.11.
`Cc1nnnn1C(=NOCc1csc(NC(=O)OCCC2CCCC2)n1)c1ccccc1` [compound 146] showed a log p of 4.33.
With `CON=C(C(=O)Nc1cccc(CON=C(c2ccccc2)n2nnnc2C)n1)c1ccccc1Cl` [compound 131] the log p was 4.18.
`CON=C(C(=O)Nc1cccc(CON=C(c2ccccc2)n2nnnc2C)n1)c1ccc(Cl)cc1` [compound 135] showed a log p of 4.51.
In the case of `Cn1nnnc1C(=NOCc1cccc(NC(=O)OCCCC2CCCC2)n1)c1ccccc1` [Example 69], the log p is reported as 5.06.

Same assay, conditions: reversed phase HPLC column; HPLC on reversed phase columns, pH 2.7, 0.1% formic acid in water / acetonitrile, linear gradient 10% to 95% acetonitrile; EEC directive 79/831 Annex V.A8; read-out: log p
With `CC(CC1CC1)OC(=O)Nc1cccc(CO/N=C(/c2ccccc2)c2nnnn2C)n1` (stereo not shown) [Example 60, 1-cyclopropylpropan-2-yl {6-[({[(Z)-(1-methyl-1H-tetrazol-5-yl)(phenyl)methylene]amino}oxy)methyl]pyridin-2-yl}carbamate] the chromatographic logP was 4.15.

Same assay, conditions: reversed phase HPLC columns, pH 2.7; HCOOH; read-out: logP(HCOOH)
In the case of `CC(CC1CC1)OC(=O)Nc1cccc(CO/N=C(/c2ccccc2)c2nnnn2C)n1` (stereo not shown) [Example 60, 1-cyclopropylpropan-2-yl {6-[({[(Z)-(1-methyl-1H-tetrazol-5-yl)(phenyl)methylene]amino}oxy)methyl]pyridin-2-yl}carbamate], the chromatographic logP is reported as 4.15.
